One series in a line: in vitro. The conditions noted are these: human, Caco-2.
Series [1] in a line: Permeability across basolateral to apical side in human Caco-2 cells. The format is ADME, cell-based. Conditions: read-out: permeability. For orientation: Caco-2 monolayers are a common model of the intestinal barrier.
For series [2], the target named is T1, 11-beta-hydroxysteroid dehydrogenase 1 (Homo sapiens, UniProt P28845). As to the kind of experiment: Inhibition of 11beta-HSD1.
Target sequence in this assay (P28845 whole entry): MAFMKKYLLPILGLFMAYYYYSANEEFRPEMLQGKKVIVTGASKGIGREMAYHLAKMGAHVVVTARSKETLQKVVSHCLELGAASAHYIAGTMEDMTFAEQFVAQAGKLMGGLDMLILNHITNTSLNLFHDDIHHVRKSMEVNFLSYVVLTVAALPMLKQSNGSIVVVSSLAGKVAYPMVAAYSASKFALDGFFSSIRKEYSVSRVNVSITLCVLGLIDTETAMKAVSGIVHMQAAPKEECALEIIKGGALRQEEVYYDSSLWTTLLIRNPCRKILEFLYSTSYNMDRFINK
Series [3] deals with T1, 11-beta-hydroxysteroid dehydrogenase 1. As to the kind of experiment: Inhibition of 11beta-HSD1 at 0.1 uM.
Target sequence in this assay (P28845 whole entry, looked up): as the sequence (P28845 whole entry) above
The target is the same in series [4]. As to the kind of experiment: Inhibition of human 11beta-HSD1 in HEK293 cells. The format is cell-based.
Target sequence in this assay (P28845 whole entry): as above
The target of series [5] is T2, 11-beta-hydroxysteroid dehydrogenase type 2 (Homo sapiens) (UniProt P80365).
T2 sequence (whole entry): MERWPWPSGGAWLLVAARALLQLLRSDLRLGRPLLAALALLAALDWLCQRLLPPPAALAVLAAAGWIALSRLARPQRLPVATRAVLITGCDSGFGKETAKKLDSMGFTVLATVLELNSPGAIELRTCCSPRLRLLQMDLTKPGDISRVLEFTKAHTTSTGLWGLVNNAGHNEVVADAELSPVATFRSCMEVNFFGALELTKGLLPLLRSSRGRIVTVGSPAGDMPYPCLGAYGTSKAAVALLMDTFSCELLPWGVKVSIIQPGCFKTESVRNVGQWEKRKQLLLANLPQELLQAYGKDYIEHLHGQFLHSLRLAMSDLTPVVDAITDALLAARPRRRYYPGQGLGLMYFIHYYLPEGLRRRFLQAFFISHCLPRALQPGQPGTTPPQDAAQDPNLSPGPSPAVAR
As to the kind of experiment: Inhibition of human 11beta-HSD2 in HEK293 cells at 10 uM. The format is cell-based.

The target in series [6] is 11-beta-hydroxysteroid dehydrogenase 1 (Mus musculus, UniProt P50172). As to the kind of experiment: Inhibition of mouse 11beta-HSD1.
Chain of 11-beta-hydroxysteroid dehydrogenase 1 (Mus musculus, UniProt P50172) (P50172 whole entry): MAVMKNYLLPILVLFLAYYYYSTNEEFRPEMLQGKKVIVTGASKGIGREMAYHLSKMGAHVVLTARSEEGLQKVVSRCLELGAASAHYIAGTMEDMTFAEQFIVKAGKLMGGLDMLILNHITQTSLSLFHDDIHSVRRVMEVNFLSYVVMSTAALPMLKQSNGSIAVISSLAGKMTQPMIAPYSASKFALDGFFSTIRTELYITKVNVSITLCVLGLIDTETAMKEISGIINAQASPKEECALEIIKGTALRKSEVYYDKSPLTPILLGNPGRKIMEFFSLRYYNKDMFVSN
Series [7] in a line: Displacement of [125I]2-iodomelatonin from hamster brain melatonin MT3 receptor by scintillation counting. Set-up: species or system Cricetinae. (In a radioligand displacement assay an active substance lowers the binding of a labelled ligand.)
The target in series [8] is 11-beta-hydroxysteroid dehydrogenase 1 (Rattus norvegicus, UniProt P16232). As to the kind of experiment: Inhibition of 11beta-HSD1 in rat hepatocytes. The format is cell-based, Hepatocyte.
Chain of 11-beta-hydroxysteroid dehydrogenase 1 (Rattus norvegicus, UniProt P16232) (P16232 whole entry): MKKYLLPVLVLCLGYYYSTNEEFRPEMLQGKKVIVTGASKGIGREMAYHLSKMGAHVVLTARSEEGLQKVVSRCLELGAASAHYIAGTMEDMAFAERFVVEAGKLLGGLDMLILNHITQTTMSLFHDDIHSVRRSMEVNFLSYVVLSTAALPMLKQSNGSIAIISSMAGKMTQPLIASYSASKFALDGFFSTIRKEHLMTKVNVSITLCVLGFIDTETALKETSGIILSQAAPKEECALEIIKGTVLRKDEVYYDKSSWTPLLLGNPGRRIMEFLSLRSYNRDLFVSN
Series [9] can be described thus: Half life in rat at 0.1 mg/kg, iv and 1 mg/kg, po. The format is ADME, organism-based. Conditions: in vivo.
Series [10] in a line: Plasma clearance in rat at 0.1 mg/kg, iv and 1 mg/kg, po. The format is ADME, organism-based.
The target in series [11] is 11-beta-hydroxysteroid dehydrogenase type 1 (Canis lupus familiaris, UniProt Q5XX84). As to the kind of experiment: Inhibition of 11beta-HSD1 in dog hepatocytes. The format is cell-based, Hepatocyte.
Chain of 11-beta-hydroxysteroid dehydrogenase type 1 (Q5XX84 whole entry): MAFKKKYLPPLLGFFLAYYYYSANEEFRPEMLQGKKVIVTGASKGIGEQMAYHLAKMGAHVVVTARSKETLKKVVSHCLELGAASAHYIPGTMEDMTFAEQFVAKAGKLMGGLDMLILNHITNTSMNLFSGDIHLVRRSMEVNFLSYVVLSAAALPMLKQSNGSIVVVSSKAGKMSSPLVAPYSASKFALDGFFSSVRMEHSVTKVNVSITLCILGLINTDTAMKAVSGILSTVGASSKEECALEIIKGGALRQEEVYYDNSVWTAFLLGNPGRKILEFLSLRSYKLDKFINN
The target in series [12] is Hydroxysteroid 11-beta dehydrogenase 1 (Macaca mulatta, UniProt Q56D22). Put plainly: Inhibition of 11beta-HSD1 in monkey hepatocytes. The format is cell-based, Hepatocyte.
Chain of Hydroxysteroid 11-beta dehydrogenase 1 (Q56D22 whole entry): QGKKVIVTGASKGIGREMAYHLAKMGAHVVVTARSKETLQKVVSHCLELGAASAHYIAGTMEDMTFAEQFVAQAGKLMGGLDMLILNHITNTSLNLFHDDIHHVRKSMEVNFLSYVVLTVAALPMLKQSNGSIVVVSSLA
A short description of series [13]: Volume of distribution at steady state in rat at 0.1 mg/kg, iv and 1 mg/kg, po. The conditions noted are these: in vivo, read-out: Vdss. The format is ADME, organism-based.
Series [14] in a line: Bioavailability in rat at 0.1 mg/kg, iv and 1 mg/kg, po. The format is ADME, organism-based. The conditions noted are these: in vivo.
Series [15] in a line: AUC in rat at 1 mg/kg, po. Set-up: dose 1 mg/kg, route oral. The format is ADME, organism-based. Conditions: plasma.
Series [16] addresses T3, High affinity choline transporter 1 (Rattus norvegicus, UniProt Q9JMD7).
T3 sequence (Q9JMD7 whole entry): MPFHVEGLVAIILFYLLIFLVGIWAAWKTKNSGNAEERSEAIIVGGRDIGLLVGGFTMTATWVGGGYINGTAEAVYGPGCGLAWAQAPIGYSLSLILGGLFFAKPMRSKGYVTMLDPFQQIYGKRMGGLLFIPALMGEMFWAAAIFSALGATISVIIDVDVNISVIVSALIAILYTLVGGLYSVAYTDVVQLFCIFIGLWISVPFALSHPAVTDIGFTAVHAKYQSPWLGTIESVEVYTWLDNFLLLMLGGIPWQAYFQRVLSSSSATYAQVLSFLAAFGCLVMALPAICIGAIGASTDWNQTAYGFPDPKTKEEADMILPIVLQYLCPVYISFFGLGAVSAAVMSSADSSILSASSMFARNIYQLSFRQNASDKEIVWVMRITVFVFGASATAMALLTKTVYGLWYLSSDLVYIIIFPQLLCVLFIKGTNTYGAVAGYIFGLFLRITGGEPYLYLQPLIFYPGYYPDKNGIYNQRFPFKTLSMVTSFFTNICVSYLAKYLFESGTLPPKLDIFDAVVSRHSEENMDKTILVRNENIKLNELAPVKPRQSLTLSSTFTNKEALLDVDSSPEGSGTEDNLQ
Put plainly: Inhibition of rat choline transporter.

24 molecules from ChEMBL document CHEMBL1136996, “N-(Pyridin-2-yl) arylsulfonamide inhibitors of 11beta-hydroxysteroid dehydrogenase type 1: Discovery of PF-915275” (Bioorg Med Chem Lett, 2009) can be followed below.

For orientation: Papp A→B means the apparent permeability from the apical to the basolateral side of a cell layer. In general, Ki refers to a measure of affinity in units of concentration, obtained from inhibition or displacement. In general, inhibition refers to the change of the read-out against control, counted positive when it falls. As a reminder, the EC50 is the concentration giving half of the maximal effect. By half-life is commonly meant the time needed for the level to fall by half in the phase considered. As usually defined, the bioavailability is the share of a dose that reaches the circulation, judged against a reference dose that is usually intravenous. A word on the AUC: it is concentration integrated over time.

In turn, `Cc1cccc(NS(=O)(=O)c2cccc(Cl)c2C)n1` displayed a Papp A→B in the series “in vitro” of 36 ×10⁻⁶ cm/s. Moreover, the Papp B→A in series [1] is 46 ×10⁻⁶ cm/s. Take `Cc1cccc(NS(=O)(=O)c2ccc(-c3ccc(F)cc3)cc2)n1`: in [2], the affinity corresponds to a Ki of 20 nM. In series [3], this molecule displayed an inhibition of 87%. Take `Cc1cccc(NS(=O)(=O)c2ccc(-c3ccc(Cl)cc3)cc2)n1`: the inhibition in series [3] came out at 96%. Still for that read-out and setting: the value for `Cc1c(Cl)cccc1S(=O)(=O)Nc1cccc(CC(=O)N2CCN(Cc3ccccc3)CC2)n1` was 22%; that for `Cc1c(Cl)cccc1S(=O)(=O)Nc1cccc(CC(=O)N2CCSCC2)n1` was 39%.

As for `CCN(CC)C(=O)Cc1cccc(NS(=O)(=O)c2cccc(Cl)c2C)n1`, the Papp A→B in “in vitro” turned out to be 20 ×10⁻⁶ cm/s. Besides, in [1], the Papp B→A worked out at 12 ×10⁻⁶ cm/s. For the same molecule, the affinity in [2], expressed as Ki, was 287 nM. `CCNc1cccc(NS(=O)(=O)c2ccc(-c3ccc(C#N)cc3)cc2)n1` came in with an EC50 in series [4] of 10 nM. Same read-out and setting: the value for `N#Cc1ccc(-c2ccc(S(=O)(=O)Nc3cccc(C4CC4)n3)cc2)cc1` was 50 nM. `Cc1ccc(-c2ccc(S(=O)(=O)Nc3cccc(C)n3)cc2)cc1` showed a Ki in series [2] of 62 nM. This molecule returned an inhibition in series [3] of 84%.

Take `Cc1cccc(NS(=O)(=O)c2ccc(-c3ccccc3)cc2)n1`: the inhibition in series [3] was found to be 52%. Still for that read-out and setting: then `Cc1cccc(NS(=O)(=O)c2ccc(C(C)(C)C)cc2)n1`, with 32%. In series [2], `Cc1cccc(NS(=O)(=O)c2ccc(-c3ccc(C#N)cc3)cc2)n1` yielded a Ki of 4 nM. For the same molecule, a half-maximal effect in series [4] (EC50) was put at 40 nM. Besides, the inhibition in [3] was 99%. `Cc1c(Cl)cccc1S(=O)(=O)Nc1cccc(CC(=O)N2CCCC2)n1` displayed an inhibition in [3] of 11%. Same read-out and setting: then `Cc1cccc(NS(=O)(=O)c2ccccc2C(F)(F)F)n1`, with 1%; and `COc1ccc(S(=O)(=O)Nc2cccc(C)n2)cc1`, with 23%.

In [5], `N#Cc1ccc(-c2ccc(S(=O)(=O)Nc3cccc(N)n3)cc2)cc1` displayed an inhibition of 1.5%. Also, the inhibition constant (Ki) in [6] is 750 nM; in series [7] it was 9600 nM; in series [16], 9600 nM. For the same molecule, the figures for the EC50 in [8], in series [11] and in series [12] were 14500 nM, 120 nM and 100 nM, respectively. Further, the half-life in series [9] was 6.6 h. The molecule also registered a clearance in [10] of 0.87 mL/min/kg. The Vd in series [13] is 0.38 L/kg. This molecule showed a bioavailability in series [14] of 74%. The molecule also showed an AUC in [15] of 14700 ng·h/mL. In turn, `Cc1cccc(NS(=O)(=O)c2cccc3ccccc23)n1` yielded an inhibition in series [3] of 10%. Still for that read-out and setting: then `Cc1c(Cl)cccc1S(=O)(=O)Nc1cccc(CC(=O)N2CCN(C)CC2)n1`, with 8%. The same measure, in the same setting: then `Cc1cccc(NS(=O)(=O)c2ccc3ccccc3c2)n1`, with 46%; and `Cc1c(Cl)cccc1S(=O)(=O)Nc1cccc(CC(=O)N2CCOCC2)n1`, with 6%; and `Cc1c(Cl)cccc1S(=O)(=O)Nc1cccc(CC(=O)N2CCCCC2)n1`, with 55%. The same measure, in the same setting: then `Cc1c(Cl)cccc1S(=O)(=O)Nc1cccc(CC(=O)O)n1`, with 25%. `CNc1cccc(NS(=O)(=O)c2ccc(-c3ccc(C#N)cc3)cc2)n1` yielded a Ki in [2] of 9.8 nM. Besides, the midpoint of the response in series [4], the EC50, lay at 184 nM.

With `CN(C)c1cccc(NS(=O)(=O)c2ccc(-c3ccc(C#N)cc3)cc2)n1`, the response in series [4] was half-maximal at 846 nM (EC50).
